Measured values: patent US20240343733A1, “COMPOUNDS FOR TARGETING DEGRADATION OF IRAK4 PROTEINS” (BIOGEN MA INC., priority 2021, published 2024)

Each molecule was assayed against T1, IRAK4 (Homo sapiens, UniProt Q9NWZ3) (assay: IRAK4 Degradation Assay, HiBiT Method). Settings: 293T cells expressing HiBiT-tagged IRAK4, 6 hours.
T1 construct: 293Tcells expressing HiBiT-tagged IRAK4 were then added into 384-well plates
T1 sequence (Q9NWZ3 1-460): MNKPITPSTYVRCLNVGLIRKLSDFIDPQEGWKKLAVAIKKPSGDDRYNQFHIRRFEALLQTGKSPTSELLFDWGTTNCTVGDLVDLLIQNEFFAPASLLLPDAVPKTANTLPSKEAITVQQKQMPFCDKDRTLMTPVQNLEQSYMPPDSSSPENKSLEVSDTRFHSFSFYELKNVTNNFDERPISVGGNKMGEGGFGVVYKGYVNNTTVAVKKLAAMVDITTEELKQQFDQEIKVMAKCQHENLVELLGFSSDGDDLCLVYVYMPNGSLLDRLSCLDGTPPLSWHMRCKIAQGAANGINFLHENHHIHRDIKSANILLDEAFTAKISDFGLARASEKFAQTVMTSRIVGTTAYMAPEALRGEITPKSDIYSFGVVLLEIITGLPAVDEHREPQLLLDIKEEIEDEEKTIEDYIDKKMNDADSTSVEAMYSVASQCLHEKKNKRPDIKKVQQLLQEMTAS
Type: cell-based
Method: Assay 1. IRAK4 Degradation Assay, HiBiT Method
Selected compounds were tested in an IRAK4 degradation assay using the HiBiT Method.
Phenol red-free Dulbecco's modified Eagle medium (DMEM) and fetal bovine serum (FBS) were purchased from Gibco (Grand Island, NY, USA). The Nano-Glo® HiBiT Lytic Assay System was purchased from Promega (Madison, WI, USA). Cell culture flasks and 384-well microplates were acquired from VWR (Radnor, PA, USA). The 293Tcell line was engineered by knocking-in a HiBiT fusion tag into the C-terminal of the IRAK4 gene in 293T cells (Synthego, Redwood City, CA, USA).
IRAK4 degradation was measured via the quantification of luminescent signals using the Nano-Glo® HiBiT Lytic Assay kit. Test compounds were added to 384-well plates in duplicate using an 11-point half-log dilution series, with the highest dose set at […]. 293Tcells expressing HiBiT-tagged IRAK4 were then added into 384-well plates at a cell density of 10,000 cells per well. The plates were kept at 37° C. with 5% CO2 for 6 hours. Cells that were treated only with DMSO served as the negative control; wells that contained only assay media served as the background control. After the 6-hour incubation, Nano-Glo® HiBiT Lytic Assay reagents were added to the cells. Luminescence was acquired using an EnVision™ Multilabel Reader (PerkinElmer, Santa Clara, CA, USA).
In the case of `CC(C)Oc1cc2nc([C@H]3CC[C@H](CN4CCC(c5ccc6c(c5)n(C)c(=O)n6C5CCC(=O)NC5=O)CC4)CC3)cn2cc1C(=O)Nc1cccc(C(F)F)n1` (stereo partly drawn) [Example 19, N-[6-(difluoromethyl)-2-pyridyl]-2-[4-[[4-[1-(2,6-dioxo-3-piperidyl)-3-methyl-2-oxo-benzimidazol-5-yl]-1-piperidyl]methyl]cyclohexyl]-7-isopropoxy-imidazo[1,2-a]pyridine-6-carboxamide], the DC50 is reported as < 10 nM. For `CC(C)Oc1cc2nc([C@H]3CC[C@H](CN(C)C4CCN(c5ccc(NC6CCC(=O)NC6=O)cc5)CC4)CC3)cn2cc1C(=O)Nc1cccc(C(F)F)n1` (stereo partly drawn) [Example 20, N-[6-(difluoromethyl)-2-pyridyl]-2-[4-[[[1-[4-[(2,6-dioxo-3-piperidyl)amino]phenyl]-4-piperidyl]-methyl-amino]methyl]cyclohexyl]-7-isopropoxy-imidazo[1,2-a]pyridine-6-carboxamide], the DC50 was 10 to 100 nM. In the case of `CC(C)Oc1cc2nc([C@H]3CC[C@H](CN(C)C4CCN(c5cccc6c5n(C)c(=O)n6C5CCC(=O)NC5=O)CC4)CC3)cn2cc1C(=O)Nc1cccc(C(F)F)n1` (stereo partly drawn) [Example 21, N-[6-(difluoromethyl)-2-pyridyl]-2-[4-[[[1-[1-(2,6-dioxo-3-piperidyl)-3-methyl-2-oxo-benzimidazol-4-yl]-4-piperidyl]-methyl-amino]methyl]cyclohexyl]-7-isopropoxy-imidazo[1,2-a]pyridine-6-carboxamide], the DC50 is reported as 10 to 100 nM. Molecule `CC(C)Oc1cc2nc([C@H]3CC[C@H](CN4CCC(c5cccc(NC6CCC(=O)NC6=O)c5F)CC4)CC3)cn2cc1C(=O)Nc1cccc(C(F)F)n1` (stereo partly drawn) [Example 22, N-[6-(difluoromethyl)-2-pyridyl]-2-[4-[[4-[3-[(2,6-dioxo-3-piperidyl)amino]-2-fluoro-phenyl]-1-piperidyl]methyl]cyclohexyl]-7-isopropoxy-imidazo[1,2-a]pyridine-6-carboxamide] has a DC50 of 10 to 100 nM. `CC(C)Oc1cc2nc([C@H]3CC[C@H](CN(C)C4CCN(c5cccc(NC6CCC(=O)NC6=O)c5)CC4)CC3)cn2cc1C(=O)Nc1cccc(C(F)F)n1` (stereo partly drawn) [Example 24, N-[6-(difluoromethyl)-2-pyridyl]-2-[4-[[[1-[3-[(2,6-dioxo-3-piperidyl)amino]phenyl]-4-piperidyl]-methyl-amino]methyl]cyclohexyl]-7-isopropoxy-imidazo[1,2-a]pyridine-6-carboxamide] gave a DC50 of 10 to 100 nM. In the case of `CC(C)Oc1cc2nc([C@H]3CC[C@H](CN4CCC(c5ccc(C6CCC(=O)NC6=O)cc5)C(F)(F)C4)CC3)cn2cc1C(=O)Nc1cccc(C(F)F)n1` (stereo partly drawn) [Example 25, N-[6-(difluoromethyl)-2-pyridyl]-2-[4-[[4-[4-(2,6-dioxo-3-piperidyl)phenyl]-3,3-difluoro-1-piperidyl]methyl]cyclohexyl]-7-isopropoxy-imidazo[1,2-a]pyridine-6-carboxamide], the DC50 is reported as 100 to 500 nM. `CC(C)Oc1cc2nc([C@H]3CC[C@H](CN4CCC(c5cccc(NC6CCC(=O)NC6=O)c5)CC4)CC3)cn2cc1C(=O)Nc1cccc(C(F)F)n1` (stereo partly drawn) [Example 26, N-[6-(difluoromethyl)-2-pyridyl]-2-[4-[[4-[3-[(2,6-dioxo-3-piperidyl)amino]phenyl]-1-piperidyl]methyl]cyclohexyl]-7-isopropoxy-imidazo[1,2-a]pyridine-6-carboxamide] showed a DC50 of 100 to 500 nM. In the case of `CC(C)Oc1cc2nc([C@H]3CC[C@H](CN(C)C4CCN(c5ccc6c(c5)n(C)c(=O)n6C5CCC(=O)NC5=O)CC4)CC3)cn2cc1C(=O)Nc1cccc(C(F)F)n1` (stereo partly drawn) [Example 27, N-[6-(difluoromethyl)-2-pyridyl]-2-[4-[[[1-[1-(2,6-dioxo-3-piperidyl)-3-methyl-2-oxo-benzimidazol-5-yl]-4-piperidyl]-methyl-amino]methyl]cyclohexyl]-7-isopropoxy-imidazo[1,2-a]pyridine-6-carboxamide], the DC50 is reported as 10 to 100 nM. Work on `CC(C)Oc1cc2nc([C@H]3CC[C@H](CN(C)C4CCN(c5cccc(C6CCC(=O)NC6=O)c5)CC4)CC3)cn2cc1C(=O)Nc1cccc(C(F)F)n1` (stereo partly drawn) [Example 28, N-[6-(difluoromethyl)-2-pyridyl]-2-[4-[[[1-[3-(2,6-dioxo-3-piperidyl)phenyl]-4-piperidyl]-methyl-amino]methyl]cyclohexyl]-7-isopropoxy-imidazo[1,2-a]pyridine-6-carboxamide] yielded a DC50 of 10 to 100 nM. `CC(C)Oc1cc2nc([C@H]3CC[C@H](CN4CCC(c5ccc6c(c5)n(C)c(=O)n6C5CCC(=O)NC5=O)C(F)(F)C4)CC3)cn2cc1C(=O)Nc1cccc(C(F)F)n1` (stereo partly drawn) [Example 29, N-[6-(difluoromethyl)-2-pyridyl]-2-[4-[[4-[1-(2,6-dioxo-3-piperidyl)-3-methyl-2-oxo-benzimidazol-5-yl]-3,3-difluoro-1-piperidyl]methyl]cyclohexyl]-7-isopropoxy-imidazo[1,2-a]pyridine-6-carboxamide] gave a DC50 of 10 to 100 nM. In the case of `CC(C)Oc1cc2nc([C@H]3CC[C@H](CN(C)C4CCN(c5ccc(C6CCC(=O)NC6=O)cc5)CC4)CC3)cn2cc1C(=O)Nc1cccc(C(F)F)n1` (stereo partly drawn) [Example 30, N-[6-(difluoromethyl)-2-pyridyl]-2-[4-[[[1-[4-(2,6-dioxo-3-piperidyl)phenyl]-4-piperidyl]-methyl-amino]methyl]cyclohexyl]-7-isopropoxy-imidazo[1,2-a]pyridine-6-carboxamide], the DC50 is reported as < 10 nM. `CC(C)Oc1cc2nc([C@H]3CC[C@H](CN(C)C4CCN(Cc5ccc(NC6CCC(=O)NC6=O)cc5)CC4)CC3)cn2cc1C(=O)Nc1cccc(C(F)F)n1` (stereo partly drawn) [Example 32, N-[6-(difluoromethyl)-2-pyridyl]-2-[4-[[[1-[[4-[(2,6-dioxo-3-piperidyl)amino]phenyl]methyl]-4-piperidyl]-methyl-amino]methyl]cyclohexyl]-7-isopropoxy-imidazo[1,2-a]pyridine-6-carboxamide] gave a DC50 of 100 to 500 nM. `CC(C)Oc1cc2nc([C@H]3CC[C@H](CN4CCC(c5cc6c(cc5F)c(N5CCC(=O)NC5=O)nn6C)C(F)(F)C4)CC3)cn2cc1C(=O)Nc1cccc(C(F)F)n1` (stereo partly drawn) [Example 33, N-[6-(difluoromethyl)-2-pyridyl]-2-[4-[[4-[3-(2,4-dioxohexahydropyrimidin-1-yl)-5-fluoro-1-methyl-indazol-6-yl]-3,3-difluoro-1-piperidyl]methyl]cyclohexyl]-7-isopropoxy-imidazo[1,2-a]pyridine-6-carboxamide] showed a DC50 of 100 to 500 nM. Work on `CC(C)Oc1cc2nc([C@H]3CC[C@H](CN(C)C4CCN(Cc5cccc(NC6CCC(=O)NC6=O)c5)CC4)CC3)cn2cc1C(=O)Nc1cccc(C(F)F)n1` (stereo partly drawn) [Example 34, N-[6-(difluoromethyl)-2-pyridyl]-2-[4-[[[1-[[3-[(2,6-dioxo-3-piperidyl)amino]phenyl]methyl]-4-piperidyl]-methyl-amino]methyl]cyclohexyl]-7-isopropoxy-imidazo[1,2-a]pyridine-6-carboxamide] yielded a DC50 of 100 to 500 nM. With `CC(C)Oc1cc2nc([C@H]3CC[C@H](CN4CCC(c5ccc(NC6CCC(=O)NC6=O)cn5)CC4)CC3)cn2cc1C(=O)Nc1cccc(C(F)F)n1` (stereo partly drawn) [Example 35, N-[6-(difluoromethyl)-2-pyridyl]-2-[4-[[4-[5-[(2,6-dioxo-3-piperidyl)amino]-2-pyridyl]-1-piperidyl]methyl]cyclohexyl]-7-isopropoxy-imidazo[1,2-a]pyridine-6-carboxamide] the DC50 was 10 to 100 nM. In the case of `CC(C)Oc1cc2nc([C@H]3CC[C@H](CN4CCC(c5ccc(NC6CCC(=O)NC6=O)cc5)C(F)(F)C4)CC3)cn2cc1C(=O)Nc1cccc(C(F)F)n1` (stereo partly drawn) [Example 36, N-[6-(difluoromethyl)-2-pyridyl]-2-[4-[[4-[4-[(2,6-dioxo-3-piperidyl)amino]phenyl]-3,3-difluoro-1-piperidyl]methyl]cyclohexyl]-7-isopropoxy-imidazo[1,2-a]pyridine-6-carboxamide], the DC50 is reported as 100 to 500 nM. `CC(C)Oc1cc2nc([C@H]3CC[C@H](CN4CCC(c5ccc(CN6CCC(=O)NC6=O)cc5)CC4)CC3)cn2cc1C(=O)Nc1cccc(C(F)F)n1` [Example 37, N-[6-(difluoromethyl)-2-pyridyl]-2-[4-[[4-[4-[(2,4-dioxohexahydropyrimidin-1-yl)methyl]phenyl]-1-piperidyl]methyl]cyclohexyl]-7-isopropoxy-imidazo[1,2-a]pyridine-6-carboxamide] was tested, and the DC50 was 10 to 100 nM. For `CC(C)Oc1cc2nc([C@H]3CC[C@H](CN4CCC(c5ccc(N6CCC(=O)NC6=O)cc5)CC4)CC3)cn2cc1C(=O)Nc1cccc(C(F)F)n1` [Example 39, N-[6-(difluoromethyl)-2-pyridyl]-2-[4-[[4-[4-(2,4-dioxohexahydropyrimidin-1-yl)phenyl]-1-piperidyl]methyl]cyclohexyl]-7-isopropoxy-imidazo[1,2-a]pyridine-6-carboxamide], the DC50 was 10 to 100 nM.
